The source of these data is PMC3796549 (PLoS ONE, 2013).

For one test, the target named is T1, PtpB from Mtb (Mycobacterium tuberculosis, UniProt P96830).
T1 construct: made in house
Kind of test: biochemical. The test is classed as biochemical.

For another test, the target named is T2, human PTP1B (Homo sapiens, UniProt P18031).
T2 construct: made in house
T2 sequence (P18031 1-435): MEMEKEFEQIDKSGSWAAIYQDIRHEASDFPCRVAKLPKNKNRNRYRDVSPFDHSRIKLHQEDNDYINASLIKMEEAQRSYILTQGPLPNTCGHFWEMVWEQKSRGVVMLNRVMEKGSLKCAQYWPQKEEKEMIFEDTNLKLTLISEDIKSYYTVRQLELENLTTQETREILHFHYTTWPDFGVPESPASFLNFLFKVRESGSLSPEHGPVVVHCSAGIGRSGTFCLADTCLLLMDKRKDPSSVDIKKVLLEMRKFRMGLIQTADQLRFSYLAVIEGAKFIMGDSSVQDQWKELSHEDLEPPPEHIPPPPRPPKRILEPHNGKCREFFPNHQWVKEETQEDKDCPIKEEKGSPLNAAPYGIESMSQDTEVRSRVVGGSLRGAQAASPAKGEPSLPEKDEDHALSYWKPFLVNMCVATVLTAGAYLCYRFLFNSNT
Kind of test: biochemical. Particulars: for IC50: pNPP substrate, mean ± SD, 3 experiments.

In test [1] the target is T3, PtpB (Mycobacterium tuberculosis, UniProt P96830).
T3 construct: made in house
T3 sequence (P96830 1-276): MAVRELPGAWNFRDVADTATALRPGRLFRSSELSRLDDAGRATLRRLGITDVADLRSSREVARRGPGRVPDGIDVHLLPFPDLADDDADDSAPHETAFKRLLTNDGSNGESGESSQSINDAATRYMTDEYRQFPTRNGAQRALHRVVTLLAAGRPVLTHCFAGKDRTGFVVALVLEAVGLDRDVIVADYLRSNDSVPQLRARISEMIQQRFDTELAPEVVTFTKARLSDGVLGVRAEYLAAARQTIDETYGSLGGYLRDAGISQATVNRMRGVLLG
Kind of test: biochemical. Particulars: for Ki: pNPP 0.2-12.8 mM, mean ± SD; for Type of inhibition: with respect to substrate pNPP.

Test [2] deals with T3, PtpB. Particulars: 300 µM inhibitor, PtpB 5 µM, 3 hours 37 °C.
The target in another test is T4, trypsin (Sus scrofa, UniProt P00761).
T4 construct: purchased Promega
T4 sequence (P00761 9-231): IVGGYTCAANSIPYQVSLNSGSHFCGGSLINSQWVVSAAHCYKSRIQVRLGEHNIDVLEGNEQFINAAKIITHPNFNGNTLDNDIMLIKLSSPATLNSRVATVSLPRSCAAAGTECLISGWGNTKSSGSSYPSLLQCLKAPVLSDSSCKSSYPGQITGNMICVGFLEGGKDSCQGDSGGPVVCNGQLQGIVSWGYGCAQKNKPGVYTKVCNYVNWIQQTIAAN
Description: Inhibition of trypsin by the inhibitor itself. The test is classed as biochemical.

The mark [3] stands for this setting: pNPP substrate, 37 °C, imidazole pH 7.0, mean ± SD, 3 experiments.

Molecules are shown by their SMILES. Where two headings read alike, the source gives them in different places. Some results are limits rather than exact numbers.

T1 sequence (P96830 1-276): as the sequence (P96830 1-276) above

Turning to `COc1ccc(CCC(=O)c2c(O)cc(OC)c(CC=C(C)C)c2OC)cc1CC=C(C)CCC=C(C)C` [59-triMe, 4,2’,4’-trimethoxy-6’-hydroxy,3’-prenyl-3-geranyldihydrochalcone], the IC50 (commonly the concentration at which inhibition is half-maximal) against PtpB from Mtb (setting [3]) is more than 100 µM.
On to `COc1c(C)c(OC(C)=O)c2c(c1-c1c(OC)c(C)c(OC(C)=O)c3c1C(=O)c1cc(C)cc(OC(C)=O)c1C3=O)C(=O)c1cc(C)cc(OC(C)=O)c1C2=O` [Ac3, tetra-acetyl-trachypone], for which inhibition against PtpB from Mtb (setting [3]) was half-maximal at 33.2 ± 4.9 µM (IC50). In addition, on human PTP1B, the “SI (Selectivity index)” value was determined as 0.9 and the IC50 stood at 31.2 ± 2.7 µM. Moreover, at PtpB [1], the “IC50 / Ki” value was 1.9; the Ki (in general, the dissociation constant of the complex between target and ligand, obtained from inhibition or displacement) turned out to be 17.1 ± 4.5 µM; the Type of inhibition result is listed as “Competitive”.
As to `C[N+](C)(C)CCc1c[nH]c2ccc(O)cc12.[I-]` [Buf-I, bufotenine CH3I], the IC50 against PtpB from Mtb (setting [3]) was more than 100 µM. In addition, the “PtpB enzymatic inhibition (in words)” value at PtpB from Mtb (up to 100 µM) is “not active”.
On the same counts, the results for `O=C(O)/C=C/c1ccc(OC2O[C@H](CO)[C@@H](O)[C@H](O)[C@H]2O)c(O)c1` (some centres unmarked) [Caf, 4-O-glucosyl caffeic acid] are more than 100 µM and “not active”.
On the same counts, the results for `O=C(/C=C/c1ccc(O)c(O)c1)O[C@@H]1C[C@@](OC(=O)/C=C/c2ccc(O)c(O)c2)(C(=O)O)C[C@@H](O)[C@@H]1O` [Cyn, cynarin] are more than 100 µM and “not active”.
With `CC(C)=CCC/C(C)=C/Cc1cc(CCC(=O)c2c(O)cc(O)c(CC=C(C)C)c2O)ccc1O` [Ega1, 4,2’,4’,6’-tetrahydroxy-3’-prenyl-3-geranyldihydrochalcone], 13.4 ± 2.6 µM corresponded to half-maximal inhibition on PtpB from Mtb (setting [3]) (IC50). At human PTP1B, the “SI (Selectivity index)” value stood at 1.6 and inhibition was half-maximal at 20.9 ± 2.8 µM (IC50). Moreover, on PtpB [1], the “IC50 / Ki” value is 0.9, the Ki was found to be 14.5 ± 2.3 µM and the Type of inhibition result was “Non-competitive”.
Consider `COc1ccc([C@@H]2CC(=O)c3c(O)cc(O[C@@H]4O[C@H](CO[C@@H]5O[C@@H](C)[C@H](O)[C@@H](O)[C@H]5O)[C@@H](O)[C@H](O)[C@H]4O)cc3O2)cc1O` [Hesp, hesperidin], for which, on PtpB from Mtb (setting [3]), the IC50 is more than 100 µM. In addition, the “PtpB enzymatic inhibition (in words)” value on PtpB from Mtb (up to 100 µM) is recorded as “not active”.
As to `CC(C)=CCc1c(O)ccc(C(=O)[C@H]2[C@@H](c3c(O)cc(/C=C/c4ccc(O)cc4O)cc3O)C=C(C)C[C@@H]2c2ccc(O)cc2O)c1O` [KuwE, Kuwanol E], the IC50 on PtpB from Mtb (setting [3]) is 1.9 ± 0.5 µM. In addition, on human PTP1B, the “SI (Selectivity index)” value was 5.1 and the IC50 came to 9.6 ± 2.6 µM. Besides, at PtpB [1], the “IC50 / Ki” value came out at 1.2, the Ki came out at 1.6 ± 0.1 µM and the Type of inhibition entry is “Competitive”. At PtpB [2], the “Protection of PtpB catalytic site from proteolytic cleavage by trypsin (fragments m/z 1953 and m/z 2224)” value is recorded as “protecting it from the proteolytic cleavage by trypsin”. The Inhibition of trypsin result on trypsin is on record as “not able to inhibit trypsin”.
On to `COc1c(C2COc3cc(O)c(CC=C(C)C)c(O)c3C2=O)ccc(O)c1CC=C(C)C` (centres unmarked) [M2, isosophoranone], for which the IC50 on PtpB from Mtb (setting [3]) is 19.8 ± 2.3 µM.
Same read-out and setting: next, `COc1c(C2COc3cc(O)c(CCC(C)C)c(O)c3C2=O)ccc(O)c1CCC(C)C` (centres unmarked) [M2H, tetra-hydro-isosophoranone]: 69.4 ± 4.5 µM.
On to `CC(C)=CCc1c(C)c(CC=C(C)C)c2c(c1O)C(=O)c1c(O)cc(O)c(CC=C(C)C)c1C2` [PirIII, 1,3,8-trihydroxy-6-methyl-4,5,7-triprenylanthrone], for which the midpoint of inhibition at PtpB from Mtb (setting [3]), the IC50, lay at 5.4 ± 0.6 µM. Further, on human PTP1B, the midpoint of inhibition, the IC50, lay at 11.8 ± 3.5 µM. Besides, on PtpB [1], the “IC50 / Ki” value came to 0.8, the Ki was 6.6 ± 2.7 µM and the Type of inhibition result was “Non-competitive”.
Consider `COc1c(C)c(O)c2c(c1-c1c(OC)c(C)c(O)c3c1C(=O)c1cc(C)cc(O)c1C3=O)C(=O)c1cc(C)cc(O)c1C2=O` [compound 6016, trachypone], for which the IC50 against PtpB from Mtb (setting [3]) was 19.2 ± 6.7 µM. At human PTP1B, the “SI (Selectivity index)” value worked out at 0.4 and the IC50 was determined as 7.1 ± 1.4 µM. At PtpB [1], the “IC50 / Ki” value is reported as 1.7, the Ki came to 11.5 ± 1.7 µM and the Type of inhibition entry was “Competitive”.
As for `O[C@@H]1OC[C@H](Cc2ccc3c(c2)OCO3)[C@H]1Cc1ccc2c(c1)OCO2` [α-Cub, α-cubebin], the “PtpB enzymatic inhibition (in words)” value on PtpB from Mtb is recorded as “not active”. Further, the IC50 against PtpB from Mtb (pH 7) is more than 100 µM.
For the molecule `CC(C)=CCc1c(C)c(CC=C(C)C)c2c(c1O)C(=O)c1c(O)cc(O)c(CC=C(CO)CO)c1C2` [∆3, 1,3,8-trihydroxy-6-methyl-5,7-diprenyl-4-γ,γ’dihydroxyprenyl-anthrone], the IC50 against PtpB from Mtb (setting [3]) amounted to 26.7 ± 0.6 µM. At human PTP1B, the “SI (Selectivity index)” value is 0.6 and the IC50 came to 14.7 ± 2.1 µM. Further, at PtpB [1], the “IC50 / Ki” value worked out at 2.0, the Ki worked out at 13.4 ± 1.5 µM and the Type of inhibition entry is recorded as “Non-competitive”.
